Results taken from the supplement of paper PMC8671470.
± gives the standard deviation of the averaged measurements.

Each molecule was assayed on MV4-11 (assay: cell viability (% survival relative to DMSO control, bortezomib = 0%); higher = less cytotoxic). Conditions: 100 nM; 72 h.
Summary of the method: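 Reported values are percent survival from duplicate wells, averaged. Fifteen myeloid leukaemia cell lines were treated in 384-well plates with compounds at 1, 10, 100, 1000 or 10000 nM for 72 h at 37 °C in 5% CO2. Signals from CellTiter-Glo luminescence were scaled with vehicle as 100% and a 10 µM positive control as 0%.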
With Cn1c2cc(S(C)=O)sc2c2cnn(Cc3cccc(N)c3)c(=O)c21 (configuration not stated) [TEPP-46] the cell viability was 94.1%. Work on CCCCCCCCCCCCCCOc1ccc(C(=O)O)o1 [TOFA] yielded a cell viability of 104%. Work on CN1CC(=O)N2[C@H](c3ccc4c(c3)OCO4)c3[nH]c4ccccc4c3C[C@@H]2C1=O [Tadalafil] yielded a cell viability of 95.3%.

Same assay, conditions: 1000 nM; 72 h
With CC(C)(F)C[C@H](N[C@@H](c1ccc(-c2ccc(S(C)(=O)=O)cc2)cc1)C(F)(F)F)C(=O)NC1(C#N)CC1 [Odanacatib] the cell viability was 97.9%. Nc1nc(O)c2c(CCc3ccc(C(=O)N[C@@H](CCC(=O)O)C(=O)O)cc3)c[nH]c2n1 [Pemetrexed] was tested, and the cell viability was 13.4%. For C=C1NC(=O)c2cc(CN(C)c3ccc(C(=O)N[C@@H](CCC(=O)O)C(=O)O)s3)ccc2N1 [Raltitrexed], the cell viability was 4.34%. With CNC(=C[N+](=O)[O-])NCCSCc1ccc(CN(C)C)o1 [Ranitidine] the cell viability was 114%. With C#CCN[C@@H]1CCc2ccccc21 [Rasagiline] the cell viability was 91.7%. Molecule NC(CCC(=O)NC(CSCc1ccc(Br)cc1)C(=O)NCC(=O)OC1CCCC1)C(=O)OC1CCCC1 (configuration not stated) [S-para-Bromobenzylglutathione cyclopentyl diester] has a cell viability of 98.7%. COc1cc(C2Oc3cc(C4Oc5cc(O)cc(O)c5C(=O)C4O)ccc3OC2CO)ccc1O (configuration not stated) [Silibinin] gave a cell viability of 110%. Fc1ccc(CNc2ncnc3ccc(F)cc23)cc1 [Spautin 1] gave a cell viability of 64.7%. In the case of Cn1c2cc(S(C)=O)sc2c2cnn(Cc3cccc(N)c3)c(=O)c21 (configuration not stated) [TEPP-46], the cell viability is reported as 103%. Molecule CCCCCCCCCCCCCCOc1ccc(C(=O)O)o1 [TOFA] has a cell viability of 98.4%. CN1CC(=O)N2[C@H](c3ccc4c(c3)OCO4)c3[nH]c4ccccc4c3C[C@@H]2C1=O [Tadalafil] gave a cell viability of 102%.

Same assay, conditions: 10000 nM; 72 h
With CC(C)(F)C[C@H](N[C@@H](c1ccc(-c2ccc(S(C)(=O)=O)cc2)cc1)C(F)(F)F)C(=O)NC1(C#N)CC1 [Odanacatib] the cell viability was 112%. For Nc1nc(O)c2c(CCc3ccc(C(=O)N[C@@H](CCC(=O)O)C(=O)O)cc3)c[nH]c2n1 [Pemetrexed], the cell viability was 5.7%. Molecule C=C1NC(=O)c2cc(CN(C)c3ccc(C(=O)N[C@@H](CCC(=O)O)C(=O)O)s3)ccc2N1 [Raltitrexed] has a cell viability of 6.68%. In the case of CNC(=C[N+](=O)[O-])NCCSCc1ccc(CN(C)C)o1 [Ranitidine], the cell viability is reported as 104%. C#CCN[C@@H]1CCc2ccccc21 [Rasagiline] was tested, and the cell viability was 96%. With NC(CCC(=O)NC(CSCc1ccc(Br)cc1)C(=O)NCC(=O)OC1CCCC1)C(=O)OC1CCCC1 (configuration not stated) [S-para-Bromobenzylglutathione cyclopentyl diester] the cell viability was 93.4%. For COc1cc(C2Oc3cc(C4Oc5cc(O)cc(O)c5C(=O)C4O)ccc3OC2CO)ccc1O (configuration not stated) [Silibinin], the cell viability was 98.8%. Work on Fc1ccc(CNc2ncnc3ccc(F)cc23)cc1 [Spautin 1] yielded a cell viability of 33%. With Cn1c2cc(S(C)=O)sc2c2cnn(Cc3cccc(N)c3)c(=O)c21 (configuration not stated) [TEPP-46] the cell viability was 69.3%. Molecule CCCCCCCCCCCCCCOc1ccc(C(=O)O)o1 [TOFA] has a cell viability of 96.2%. CN1CC(=O)N2[C@H](c3ccc4c(c3)OCO4)c3[nH]c4ccccc4c3C[C@@H]2C1=O [Tadalafil] showed a cell viability of 92.6%.

What follows are molecules tested on HL-60 (assay: cell viability (% survival relative to DMSO control); higher = less cytotoxic). Conditions: 0.001 µM; 72 h; co-treatment: AZD3965 100 nM.
Summary of the method: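 HL-60 cells grown in RPMI 1640 with 10% FBS were rescreened against the full library in 384-well plates, in duplicate, at five tenfold concentrations from 1 to 10,000 nM, alongside DMSO or 100 nM of one of three metabolic inhibitors for 72 h at 37 °C, 5% CO2. Reference wells contained DMSO or 10 μM proteasome inhibitor. Viability was read with CellTiter-Glo and normalised to these reference wells, and where reported, area under the curve was taken from four-parameter log-logistic fits in drc and PharmacoGx.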
For CC(C)(F)C[C@H](N[C@@H](c1ccc(-c2ccc(S(C)(=O)=O)cc2)cc1)C(F)(F)F)C(=O)NC1(C#N)CC1 [Odanacatib], the cell viability was 99.32 ± 0.47%. Nc1nc(O)c2c(CCc3ccc(C(=O)N[C@@H](CCC(=O)O)C(=O)O)cc3)c[nH]c2n1 [Pemetrexed] showed a cell viability of 91.8 ± 7%. C=C1NC(=O)c2cc(CN(C)c3ccc(C(=O)N[C@@H](CCC(=O)O)C(=O)O)s3)ccc2N1 [Raltitrexed] showed a cell viability of 99.38 ± 0.65%. Molecule CNC(=C[N+](=O)[O-])NCCSCc1ccc(CN(C)C)o1 [Ranitidine] has a cell viability of 103 ± 2.5%. C#CCN[C@@H]1CCc2ccccc21 [Rasagiline] gave a cell viability of 102 ± 5.7%. Molecule NC(CCC(=O)NC(CSCc1ccc(Br)cc1)C(=O)NCC(=O)OC1CCCC1)C(=O)OC1CCCC1 (configuration not stated) [S-para-Bromobenzylglutathione cyclopentyl diester] has a cell viability of 101 ± 4%. COc1cc(C2Oc3cc(C4Oc5cc(O)cc(O)c5C(=O)C4O)ccc3OC2CO)ccc1O (configuration not stated) [Silibinin] showed a cell viability of 107 ± 10%.
